Laboratory results as given in patent US6706663B2, “Herbicidal 3-heterocyclic substituted benzisothiazole and benzisoxazole compounds” (Wyeth, priority 2000, dated 2004).

Legend:
[1] = system: SAGPY (Sagittaria pygmaea); test: Flooded paddy, preemergence weed control; assay type: in vivo, L.; details: rated 3-4 weeks after treatment, 0-9 rating scale
Method in brief: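 Scoring used a 0-9 visual scale relative to control. Before that, seeds or propagules were planted shallowly in silt loam and flooded to 1.5–3 cm, a depth maintained throughout, with greenhouse care during the test.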

ORYSAT (Rice, Tebonnet) [2] = test: Postemergence herbicidal evaluation; assay type: in vivo, Oryza sativa, (L.) Tebonnet; details: postemergence
Method in brief: (§1)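 Visual 0–9 injury scores versus control plants, covering stand, vigour, malformation, size, chlorosis and general appearance, taken four to five weeks post-spray and averaged over replicate tests. Plants were sprayed at roughly two weeks old and held on greenhouse benches.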

[3] = system: IPOHE (Ipomoea hederacea); test: Preemergence herbicidal evaluation; assay type: in vivo, (L.) Jacq.; details: preemergence, rated 4-5 weeks after treatment
[4] = system: ABUTH (Abutilon theophrasti); test: Preemergence herbicidal evaluation; assay type: in vivo, Medic.; details: preemergence, rated 4-5 weeks after treatment
ORYSAT (Rice, Tebonnet) [5] = test: Flooded paddy, post-transplant rice tolerance; assay type: in vivo, Oryza sativa, (L.) Tebonnet; details: flooded paddy, post-transplant rice, rated 3-4 weeks after treatment, 0-9 rating scale
Method in brief: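 Scores (0-9) reflect visual injury relative to untreated plants in flooded silt loam. Each pot held two transplanted ten-day-old seedlings under 1.5 to 3 cm standing water in the greenhouse.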

[6] = system: ABUTH (Abutilon theophrasti); test: Postemergence herbicidal evaluation; assay type: in vivo, Medic.; details: postemergence
Method in brief: as §1

[7] = system: GLXMAW (Soybean, Williams); test: Postemergence herbicidal evaluation; assay type: in vivo, Glycine max, (L.) Merr. cv Williams; details: postemergence
Method in brief: as §1

[8] = system: AMBEL (Ambrosia artemisifolia); test: Postemergence herbicidal evaluation; assay type: in vivo, L.; details: postemergence
Method in brief: as §1

[9] = system: CHEAL (Chenopodium album); test: Postemergence herbicidal evaluation; assay type: in vivo, L.; details: postemergence
Method in brief: as §1

[10] = system: CASOB (Cassia obtusifolia); test: Postemergence herbicidal evaluation; assay type: in vivo, L.; details: postemergence
Method in brief: as §1

[11] = system: ECHCG (Echinochloa crus-galli); test: Postemergence herbicidal evaluation; assay type: in vivo, (L.) Beau; details: postemergence
Method in brief: as §1

[12] = system: AMBEL (Ambrosia artemisifolia); test: Preemergence herbicidal evaluation; assay type: in vivo, L.; details: preemergence, rated 4-5 weeks after treatment
Method in brief: (§2)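 Rating 0–9, visual, vs control; 4–5 wk after spraying seeded cups with compound in aq. acetone; conventional greenhouse care.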

[13] = system: CHEAL (Chenopodium album); test: Preemergence herbicidal evaluation; assay type: in vivo, L.; details: preemergence, rated 4-5 weeks after treatment
Method in brief: as §2

[14] = system: CASOB (Cassia obtusifolia); test: Preemergence herbicidal evaluation; assay type: in vivo, L.; details: preemergence, rated 4-5 weeks after treatment
Method in brief: as §2

GALAP (Galium aparine) [15] = test: Postemergence herbicidal evaluation; assay type: in vivo; details: postemergence
Method in brief: as §1

ORYSAT (Rice, Tebonnet) [16] = test: Preemergence herbicidal evaluation; assay type: in vivo, Oryza sativa, (L.) Tebonnet; details: preemergence, rated 4-5 weeks after treatment
GALAP (Galium aparine) [17] = test: Preemergence herbicidal evaluation; assay type: in vivo; details: preemergence, rated 4-5 weeks after treatment
Method in brief: as §2

ZEAMX (Corn, Field) = test: Postemergence herbicidal evaluation; assay type: in vivo, Zea mays, L.; details: postemergence
Method in brief: as §1

Cn1c(C(F)(F)F)cc(=O)n(-c2ccc3snc(C4OCC(CS(C)(=O)=O)O4)c3c2)c1=O (single isomer, unassigned) [Compound 87, 1-methyl-3-[3-[4-[(methylsulfonyl)methyl]-1,3-dioxolan-2-yl]-1,2-benzisothiazol-5-yl]-6-(trifluoromethyl)uracil]
8.5: GLXMAW herbicidal rating ([7]; rate 0.0620 kg/ha)
2.0: Preemergence herbicidal rating ORYSAT (ORYSAT (Rice, Tebonnet) [16]; rate 0.0620 kg/ha)
3.0: ORYSAT herbicidal rating (ORYSAT (Rice, Tebonnet) [2]; rate 0.0320 kg/ha) | ORYSAT herbicidal rating (transplanted rice tolerance) (ORYSAT (Rice, Tebonnet) [5]; rate 0.1250 kg/ha) | ECHCG herbicidal rating ([11]; rate 0.0320 kg/ha) | Preemergence herbicidal rating ORYSAT (ORYSAT (Rice, Tebonnet) [16]; rate 0.1250 kg/ha)
6.0: Preemergence herbicidal rating IPOHE ([3]; rate 0.1250 kg/ha) | Preemergence herbicidal rating CASOB ([14]; rate 0.0620 kg/ha) | Preemergence herbicidal rating GALAP (GALAP (Galium aparine) [17]; rate 0.0620 kg/ha)
4.0: ECHCG herbicidal rating ([11]; rate 0.0620 kg/ha)
9.0: Preemergence herbicidal rating IPOHE ([3]; rate 0.2500 kg/ha) | Preemergence herbicidal rating ABUTH ([4]; rate 0.0620 kg/ha) | Preemergence herbicidal rating ABUTH ([4]; rate 0.1250 kg/ha) | Preemergence herbicidal rating ABUTH ([4]; rate 0.2500 kg/ha) | ABUTH herbicidal rating ([6]; rate 0.0320 kg/ha) | ABUTH herbicidal rating ([6]; rate 0.0620 kg/ha) | GLXMAW herbicidal rating ([7]; rate 0.0320 kg/ha) | AMBEL herbicidal rating ([8]; rate 0.0320 kg/ha) | AMBEL herbicidal rating ([8]; rate 0.0620 kg/ha) | CHEAL herbicidal rating ([9]; rate 0.0320 kg/ha) | CHEAL herbicidal rating ([9]; rate 0.0620 kg/ha) | CASOB herbicidal rating ([10]; rate 0.0320 kg/ha) | CASOB herbicidal rating ([10]; rate 0.0620 kg/ha) | Preemergence herbicidal rating AMBEL ([12]; rate 0.0620 kg/ha) | Preemergence herbicidal rating AMBEL ([12]; rate 0.1250 kg/ha) | Preemergence herbicidal rating AMBEL ([12]; rate 0.2500 kg/ha) | Preemergence herbicidal rating CHEAL ([13]; rate 0.0620 kg/ha) | Preemergence herbicidal rating CHEAL ([13]; rate 0.1250 kg/ha) | Preemergence herbicidal rating CHEAL ([13]; rate 0.2500 kg/ha) | Preemergence herbicidal rating CASOB ([14]; rate 0.1250 kg/ha) | GALAP herbicidal rating (GALAP (Galium aparine) [15]; rate 0.0320 kg/ha) | GALAP herbicidal rating (GALAP (Galium aparine) [15]; rate 0.0620 kg/ha) | Preemergence herbicidal rating GALAP (GALAP (Galium aparine) [17]; rate 0.1250 kg/ha) | Preemergence herbicidal rating GALAP (GALAP (Galium aparine) [17]; rate 0.2500 kg/ha)
0.0: SAGPY herbicidal rating ([1]; rate 0.0320 kg/ha) | SAGPY herbicidal rating ([1]; rate 0.1250 kg/ha) | ORYSAT herbicidal rating (transplanted rice tolerance) (ORYSAT (Rice, Tebonnet) [5]; rate 0.0320 kg/ha)
7.0: Preemergence herbicidal rating CASOB ([14]; rate 0.2500 kg/ha)
5.0: Preemergence herbicidal rating IPOHE ([3]; rate 0.0620 kg/ha) | Preemergence herbicidal rating ORYSAT (ORYSAT (Rice, Tebonnet) [16]; rate 0.2500 kg/ha)
3.5: ORYSAT herbicidal rating (ORYSAT (Rice, Tebonnet) [2]; rate 0.0620 kg/ha) | ZEAMX herbicidal rating (ZEAMX (Corn, Field); rate 0.0320 kg/ha) | ZEAMX herbicidal rating (ZEAMX (Corn, Field); rate 0.0620 kg/ha)

Cn1c(C(F)(F)F)cc(=O)n(-c2ccc3snc(C4OCC(C[S+](C)[O-])O4)c3c2)c1=O (centres unmarked) [Compound 88, 1-methyl-3-[3-[4-[(methylsulfinyl)methyl]-1,3-dioxolan-2-yl]-1,2-benzisothiazol-5-yl]-6-(trifluoromethyl)uracil]
0.0: SAGPY herbicidal rating ([1]; rate 0.0320 kg/ha) | SAGPY herbicidal rating ([1]; rate 0.1250 kg/ha) | ORYSAT herbicidal rating (transplanted rice tolerance) (ORYSAT (Rice, Tebonnet) [5]; rate 0.0320 kg/ha)
4.0: ORYSAT herbicidal rating (ORYSAT (Rice, Tebonnet) [2]; rate 0.0320 kg/ha) | ORYSAT herbicidal rating (ORYSAT (Rice, Tebonnet) [2]; rate 0.0620 kg/ha) | Preemergence herbicidal rating ORYSAT (ORYSAT (Rice, Tebonnet) [16]; rate 0.0620 kg/ha) | ZEAMX herbicidal rating (ZEAMX (Corn, Field); rate 0.0320 kg/ha)
7.0: Preemergence herbicidal rating GALAP (GALAP (Galium aparine) [17]; rate 0.0620 kg/ha)
7.5: Preemergence herbicidal rating IPOHE ([3]; rate 0.1250 kg/ha)
6.0: Preemergence herbicidal rating IPOHE ([3]; rate 0.0620 kg/ha)
5.0: ORYSAT herbicidal rating (transplanted rice tolerance) (ORYSAT (Rice, Tebonnet) [5]; rate 0.1250 kg/ha) | CASOB herbicidal rating ([10]; rate 0.0320 kg/ha) | ECHCG herbicidal rating ([11]; rate 0.0320 kg/ha) | ECHCG herbicidal rating ([11]; rate 0.0620 kg/ha) | Preemergence herbicidal rating CASOB ([14]; rate 0.0620 kg/ha) | Preemergence herbicidal rating ORYSAT (ORYSAT (Rice, Tebonnet) [16]; rate 0.1250 kg/ha) | ZEAMX herbicidal rating (ZEAMX (Corn, Field); rate 0.0620 kg/ha)
8.0: Preemergence herbicidal rating ORYSAT (ORYSAT (Rice, Tebonnet) [16]; rate 0.2500 kg/ha)
9.0: Preemergence herbicidal rating IPOHE ([3]; rate 0.2500 kg/ha) | Preemergence herbicidal rating ABUTH ([4]; rate 0.0620 kg/ha) | Preemergence herbicidal rating ABUTH ([4]; rate 0.1250 kg/ha) | Preemergence herbicidal rating ABUTH ([4]; rate 0.2500 kg/ha) | ABUTH herbicidal rating ([6]; rate 0.0320 kg/ha) | ABUTH herbicidal rating ([6]; rate 0.0620 kg/ha) | GLXMAW herbicidal rating ([7]; rate 0.0320 kg/ha) | GLXMAW herbicidal rating ([7]; rate 0.0620 kg/ha) | AMBEL herbicidal rating ([8]; rate 0.0320 kg/ha) | AMBEL herbicidal rating ([8]; rate 0.0620 kg/ha) | CHEAL herbicidal rating ([9]; rate 0.0320 kg/ha) | CHEAL herbicidal rating ([9]; rate 0.0620 kg/ha) | CASOB herbicidal rating ([10]; rate 0.0620 kg/ha) | Preemergence herbicidal rating AMBEL ([12]; rate 0.0620 kg/ha) | Preemergence herbicidal rating AMBEL ([12]; rate 0.1250 kg/ha) | Preemergence herbicidal rating AMBEL ([12]; rate 0.2500 kg/ha) | Preemergence herbicidal rating CHEAL ([13]; rate 0.0620 kg/ha) | Preemergence herbicidal rating CHEAL ([13]; rate 0.1250 kg/ha) | Preemergence herbicidal rating CHEAL ([13]; rate 0.2500 kg/ha) | Preemergence herbicidal rating CASOB ([14]; rate 0.1250 kg/ha) | Preemergence herbicidal rating CASOB ([14]; rate 0.2500 kg/ha) | GALAP herbicidal rating (GALAP (Galium aparine) [15]; rate 0.0320 kg/ha) | GALAP herbicidal rating (GALAP (Galium aparine) [15]; rate 0.0620 kg/ha) | Preemergence herbicidal rating GALAP (GALAP (Galium aparine) [17]; rate 0.1250 kg/ha) | Preemergence herbicidal rating GALAP (GALAP (Galium aparine) [17]; rate 0.2500 kg/ha)
